Test results as given in PMC8790063, “Discovery of Benzopyrrolizidines as Promising Antigiardiasic Agents” (Frontiers in Cellular and Infection Microbiology, 2022).
Values joined by “and” are separate entries in the source; they are usually repeats but may differ in a detail not shown here. Identical values can stand only once.

What was measured:
Assay type in all cases: cell-based
HaCaT cells = assay: Cytotoxicity assay in human keratinocytes (crystal violet); settings: for IC50: HaCaT human keratinocytes, standard deviation in parenthesis; for Selectivity Index: IC50 HaCaT/IC50 Trophozoites
Experimental: The in vitro cytotoxicity evaluation of compounds was assayed in immortalized human keratinocytes cell line (HaCat). Briefly, cell cultures were grown in DMEM-F12 media supplemented with 10% decomplemented fetal bovine serum, at 37°C and 5% CO2. Before to test, cells were harvested by centrifugation at 25°C and resuspended in fresh media at 5x10^4 cells/mL. Then, the cells were placed in sterile 24 well clear flat bottom polystyrene TC-treated plates (Corning Costar, #353047) at 3x10^4 cells/well in a volume of 600 µL during 24 hours/37°C at 5% CO2, […] of media was replaced by the same amount of fresh media containing the compounds at concentrations of 100, 90, 80, 70, 60, and 50 µM; DMSO was used as a negative control. The cells were incubated for 48 hours/37°C and 5% CO2. In the end, the cells were washed two times with PBS, fixed and stained by incubating 15 minutes in a solution containing 50% EtOH, 1.75% formaldehyde, 0.75% crystal violet, and 0.25% NaCl. Then, the plates were washed several times with water until removing the colorant excess. After that, the plates were dried for one day at 25°C. Finally, 600 µL of PBS supplemented with 1% SDS was added to wells. The crystal violet incorporated to cells was spectrophotometrically quantified at 570 nm; the IC50 values were calculated from the percentage of death obtained from the different concentrations of assayed compounds. The assay was performed by two independent experiments, each compound was tested by triplicate.

[1] = system: Giardia lamblia trophozoites; assay: In vitro cytotoxicity microassay with XTT viability readout on trophozoites; settings: for % cell death at 12.5 µM (Hits confirmation) / % cell death at 25 µM (Hits confirmation) / % cell death at 50 µM (Hits confirmation) / % cell death at 100 µM (First screening): Table S9; for % cell death at 100 µM (First screening) / % cell death / % cell death 100 µM: 100 µM; for % cell death: first set of 54 compounds (Table S8); for IC50: G. lamblia trophozoites, standard deviation in parenthesis; for % cell death 100 µM: second set of 20 compounds (Table S10)
Experimental: The cytotoxicity test was performed using sterile 96 well clear flat bottom polystyrene TC-treated microplates (Corning Costar #3596). Every well contained in a triplicate 287.5 µL medium supplemented with a first set of 54 compounds of the collection, control drugs (metronidazole and tinidazole), and negative controls (0.05% DMSO). Afterwards, 12.5 µL of a cell suspension containing 1.6 x 10^7 trophozoites/mL was added to every well to obtain a final number of 2x10^5 cells/well and incubated at 37°C for 24 hours. […] A triplicate of blank was done by filling three wells with only 300 µL culture medium (no cells but DMSO). After that, the plates were chilled for 30 minutes to separate the adhered trophozoites in wells. Later, we transferred 50 µL of this suspension to a second plate containing 250 µL of TYI-S-33 media free of compounds, DMSO or antibiotic per well, and re-cultivated at 37°C for 24 hours. The test was performed by two independent experiments for all compounds.
>The trophozoites viability was evaluated using the 2,3-Bis(2-methoxy-4-nitro-5-sulfophenyl)-sH-tetrazolium-5-carboxianilide inner salt (XTT) assay. Antigiardiasic activity of each compound was expressed as the death percentage, calculated by using the next equation ([Inc, 2020]):
% death=[(Abs. of well with 100% viability−Abs. of well with compound)/(Abs. of well with 100% viability−Abs. of blank well)]X 100
The assay was performed by two independent experiments, where each compound was tested by triplicate.

[2] = system: Giardia lamblia trophozoites; assay: Morphological studies of trophozoites (bright-field microscopy, transmission electron microscopy); settings: at the IC50 concentration, 24 hours; for Morphological effects on trophozoites (bright-field microscopy): Giemsa stain
Experimental: For bright-field microscopy (BFM), 2x10^6 trophozoites were placed in 1.5 mL vials containing antibiotic-free TYI-S-33 culture medium, with or without metronidazole, tinidazole, albendazole, or the library compounds, at the IC50 concentration values. The trophozoites were incubated for 24 hours/37°C and harvested by chilling in ice bath for 15 minutes and centrifuged at 2,000 x g/5 minutes. The bottom cell was washed three times with PBS, and then, placed in glass slides, fixed with MeOH and stained with Giemsa. Finally, the samples were analyzed by BFM. To identify ultrastructural damage, 1x10^6 trophozoites treated as described before were fixed with 2.5% glutaraldehyde and post-fixed with 1% osmium tetroxide in 0.1 M cacodylate buffer, pH 7.2. Afterward, the samples were dehydrated with sequential increasing of ethanol concentrations and then, embedded in epoxy resin. Ultrathin sections of samples were analyzed in a JEOL-JEM-1200 transmission electron microscope coupled to a CCD GATAN camera in the Unidad de Imagenología del Instituto de Fisiología Celular, UNAM.

SMILES | IC50 (HaCaT cells; Homo sapiens, HaCaT, 48 h) [µM] | Selectivity Index (HaCaT cells) | % cell death at 12.5 µM (Hits confirmation) [1] [%] | % cell death at 25 µM (Hits confirmation) ([1]; 25 µM) | % cell death at 50 µM (Hits confirmation) ([1]; 50 µM) [%] | % cell death at 100 µM (First screening) [1] [%] | % cell death [1] [%] | IC50 ([1]; Giardia duodenalis) [µM] | Morphological effects on trophozoites (bright-field microscopy) [2] | % cell death 100 µM [1] [%] | Ultrastructural effects on trophozoites (transmission electron microscopy) [2] | IC50 (HaCaT cells; 48 hours) [µM] | % cell death 25 µM ([1]; 25 µM, second set (Table S10)) [%] | % cell death 50 µM ([1]; 50 µM, second set (Table S10)) [%] | IC50 [1] [µM]
COc1ccc(/C=C2/CC3(C(=O)NC(C)(C)C)c4cc(F)ccc4CN3C2=O)cc1OC (stereo not drawn) [EHV-110-160] | 141 | 7 | 2.874 | 67% and 66.901% | 98.178 | 100.0 | 100.0 | 20 | affected the nuclear structure and promoted the loss of one nucleus |  |  |  |  |  | 
Cc1ncc([N+](=O)[O-])n1CCO [Metronidazole, reference compound] | 71.9 | 27.6 | 86.562 |  |  | 100.0 | 100.0 | 2.6 | provoked cell swelling and the voiding of cytoplasmic contents making the cells translucent | 100.1 | without apparent morphologic changes |  |  |  | 
COc1ccc(/C=C2/CC3(C(=O)NC4CCCCC4)c4ccccc4CN3C2=O)cc1OC (stereo not drawn) [EHV-110-154] | 50 | 1.68 | 4.160 | 10.752% | 94.654 | 100.0 | 100.0 | 30 | affected the nuclear structure and promoted the loss of one nucleus |  |  | 50.6 |  |  | 
COc1ccc(/C=C2/CC3(C(=O)NC(C)(C)C)c4ccccc4CN3C2=O)cc1OC (stereo not drawn) [EHV-110-106] |  |  |  |  |  |  |  |  |  | 89.2 |  |  | 8.2 | 13.4 | 
CCS(=O)(=O)CCn1c([N+](=O)[O-])cnc1C [Tinidazole, reference compound] | 60.9 | 46 | 98.499 |  |  | 100.0 | 100.0 | 1.3 | provoked cell swelling and the voiding of cytoplasmic contents making the cells translucent | 100.7 |  |  |  |  | 
COc1ccc(/C=C2/CC3(C(=O)N[C@@H](C)c4ccccc4)c4ccccc4CN3C2=O)cc1OC (stereo partly drawn) [EHV-110-174, 2-((Z)-3,4-dimethoxybenzylidene)-3-oxo-N-((S)-1-phenylethyl)-2,3-dihydro-1H-pyrrolo[2,1-a]isoindole-9b(5H)-carboxamide] | 130 | 12 |  | 98.298% | 98.312 | 100.0 | 100.0 | 11 | the cells are translucent and swelling, with shortening of flagella but without general morphological deformation |  | damaged the cellular nuclei inducing chromatin condensation and conferring to it a speckled pattern |  |  |  | 10.9
CCCSc1ccc2nc(NC(=O)OC)[nH]c2c1 [Albendazole] |  |  |  |  |  |  |  |  | an intense deformation of its general structure was observed |  | loss of adhesive disc |  |  |  | 
